From US20170101670A1, “METHOD FOR DETECTING RARE MUTATION” (NATIONAL CANCER CENTER, priority 2015, published 2017)

System: Human TK6 lymphoblasts
Assay: Induction of point mutation of genomic DNA by mutagen in cultured cells, detected by sequencing 100 copies of genomic DNA
Assay type: cell-based
Settings: TK6 cells exposed to 0, 0.1, 0.3, 1, 3, 10 or 30 μM for 24 hours, collected day 7; variants with ratio 0.8 to 10% counted; three independent analyses; FIG. 2
Experimental: In Example 1, N-nitroso-N-methylurea (hereinafter referred to as “MNU”) that was a mutagen was administered to cultured cells, to induce a point mutation of genomic DNA. Then, mutation was detected by the detection method of this embodiment, and the appearance frequency of the mutation was calculated. This analysis was independently performed three times.
Human TK6 lymphoblasts (hereinafter, referred to as “TK6 cell”) were obtained from American Type Culture Collection. On day 0, 1×10^5 cells of TK6 cells were seeded on a 10 cm plate. On day 1, the TK6 cells were exposed to MNU (Sigma) in a concentration of 0, 0.1, 0.3, 1, 3, 10 or 30 μM for 24 hours. On day 7, the number of cells was counted, and the cells were collected. Then, genomic DNA was extracted by phenol/chloroform method.
The copy number of the extracted genomic DNA was determined quantitatively by real-time PCR using SYBR (registered trademark) green I (BioWhittaker Molecular Applications) and iCycler Thermal Cycler (Bio-Rad Laboratories, Inc.). In the table, “F” means a forward primer, and “R” means a reverse primer. Each sample was measured using three kinds of primers. […]
A sample containing 100 copies of genomic DNA was prepared, based on the measurement result of the copy number. […] The average number of reads of sequencing was 5,000. Among the analyzed 48,587 bases, 15,724 bases were selected. […]

CN(N=O)C(N)=O [MNU, N-nitroso-N-methylurea]
appearance frequency of point mutation (somatic mutation induced by mutagen): correlation between the administration amount of MNU and the accumulation of mutations
